Measured values reported in the supplement of paper PMC10307832.

Experiments:
Assay in all cases: relative viability (nuclei count vs DMSO), 5 days (fraction); higher = more cells survive
R406 + Navitoclax = compound: COc1cc(Nc2ncc(F)c(Nc3ccc4c(n3)NC(=O)C(C)(C)O4)n2)cc(OC)c1OC [R406] + CC1(C)CCC(c2ccc(Cl)cc2)=C(CN2CCN(c3ccc(C(=O)NS(=O)(=O)c4ccc(N[C@H](CCN5CCOCC5)CSc5ccccc5)c(S(=O)(=O)C(F)(F)F)c4)cc3)CC2)C1 [Navitoclax] (partner 0.5 µM)
Summary of the method: (§1)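 Dosing by pin tool came one day after lung cancer cell lines were seeded in 1536-well plates, using either one drug or a fixed anchor-drug dose plus five library-drug doses (not always all listed) in √10 steps. After 5 days, nuclei were counted on 4× images. Relative viability is treated-well nuclei count divided by vehicle-well nuclei count, and values are medians of duplicate plates.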

Daporinad = compound: O=C(/C=C/c1cccnc1)NCCCCC1CCN(C(=O)c2ccccc2)CC1 [Daporinad]
Summary of the method: (§2)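 Viability was read as treated-well nuclei divided by vehicle-well nuclei, using the median across plates. Lung cancer cell lines in 1536-well plates were kept overnight at 37 °C, pinned with five √10-spaced library-drug doses, and after 5 days were Hoechst-stained, imaged at 4× and counted in MetaXpress. Plates passed only with control CV below 25% and at least one doubling.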

R406 = compound: COc1cc(Nc2ncc(F)c(Nc3ccc4c(n3)NC(=O)C(C)(C)O4)n2)cc(OC)c1OC [R406]
Summary of the method: as §2

R406 + Foretinib = compound: COc1cc(Nc2ncc(F)c(Nc3ccc4c(n3)NC(=O)C(C)(C)O4)n2)cc(OC)c1OC [R406] + COc1cc2c(Oc3ccc(NC(=O)C4(C(=O)Nc5ccc(F)cc5)CC4)cc3F)ccnc2cc1OCCCN1CCOCC1 [Foretinib] (partner 0.25 µM)
Summary of the method: as §1

Cell Line | relative viability (R406 + Navitoclax; first compound 0.08 µM) | relative viability (R406 + Navitoclax; first compound 0.253 µM) | relative viability (R406 + Navitoclax; first compound 0.8 µM) | relative viability (R406 + Navitoclax; first compound 2.53 µM) | relative viability (R406 + Navitoclax; first compound 8 µM) | relative viability (Daporinad; 0.0005 µM) | relative viability (Daporinad; 0.001581 µM) | relative viability (Daporinad; 0.005 µM) | relative viability (Daporinad; 0.01581 µM) | relative viability (R406; 0.08 µM) | relative viability (R406; 0.253 µM) | relative viability (R406; 0.8 µM) | relative viability (R406; 2.53 µM) | relative viability (R406; 8 µM) | relative viability (R406 + Foretinib; first compound 0.08 µM) | relative viability (R406 + Foretinib; first compound 0.253 µM) | relative viability (R406 + Foretinib; first compound 0.8 µM) | relative viability (R406 + Foretinib; first compound 2.53 µM) | relative viability (R406 + Foretinib; first compound 8 µM)
HCC-44 | 0.915 | 1.04 | 1.05 | 1.04 | 0.316 | 0.992 | 0.993 | 0.97 | 1 | 0.979 | 0.976 | 0.94 | 0.928 | 0.711 |  |  |  |  | 
HCC-827 | 1.04 | 0.952 | 0.949 | 0.932 | 0.489 | 1.02 | 1.06 | 1.03 | 1.1 | 1.09 | 1.07 | 1.1 | 0.903 | 0.672 | 0.991 | 1.08 | 1.05 | 0.81 | 0.157
NCI-H2342 |  |  |  |  |  | 1.08 | 0.839 | 0.952 | 0.974 | 1 | 0.964 | 1.01 | 0.916 | 0.93 | 0.889 | 1.21 | 1.22 | 0.863 | 0.88
NCI-H2347 | 0.736 | 0.824 | 0.95 | 0.663 | 0.529 | 1.13 | 1.13 | 1.02 | 1.09 | 1.06 | 1.18 | 1.11 | 0.935 | 0.796 | 1.11 | 1.09 | 1.29 | 0.61 | 0.348
PC-3 [JPC-3] | 0.828 | 0.819 | 0.833 | 0.685 | 0.6 | 1.02 | 1.1 | 1.14 | 1.12 | 1.04 | 1.17 | 1.04 | 0.819 | 0.647 | 0.981 | 1.08 | 1.09 | 0.827 | 0.372
NCI-H1651 | 1.08 | 1.29 | 0.961 | 0.769 | 0.463 | 1.01 | 1.03 | 1.05 | 0.874 | 0.926 | 1.1 | 1.05 | 0.899 | 0.667 | 0.875 | 0.83 | 0.939 | 0.596 | 0.679
HARA | 1.05 | 1.14 | 1.12 | 1.19 | 0.453 | 0.903 | 0.958 | 0.964 | 0.583 | 0.975 | 0.965 | 1.1 | 0.676 | 0.365 | 0.867 | 1.04 | 1.05 | 0.751 | 0.218
NCI-H1650 | 1.3 | 1.15 | 1.5 | 1.24 | 0.747 | 0.981 | 1.05 | 1.07 | 0.848 | 1.02 | 1.23 | 1.06 | 0.212 | 0.155 | 1.28 | 1.23 | 1 | 0.723 | 0.117
NCI-H1563 |  |  |  |  |  | 1.07 | 0.995 | 0.983 | 0.904 | 0.904 | 0.971 | 1.01 | 0.928 | 0.539 | 0.777 | 1 | 0.939 | 0.82 | 0.624
ABC-1 |  |  |  |  |  | 0.802 | 0.934 | 0.832 | 0.659 | 0.761 | 1.06 | 0.895 | 0.619 | 0.535 | 1.08 | 1.03 | 1.03 | 1.15 | 0.781
SW 900 |  |  |  |  |  | 0.748 | 0.733 | 0.864 | 0.592 | 0.798 | 1.03 | 1.26 | 0.166 | 0.293 | 0.769 | 0.779 | 0.915 | 0.754 | 0.519
NCI-H1792 | 0.536 | 0.804 | 0.89 | 0.6 | 0.582 | 0.828 | 1.17 | 1.11 | 1.15 | 1 | 1.07 | 1.17 | 0.251 | 0.386 |  |  |  |  | 
LCLC-103H |  |  |  |  |  | 0.928 | 1.16 | 1.04 | 1 | 0.889 | 1.04 | 0.952 | 0.84 | 0.579 | 0.758 | 0.734 | 0.879 | 0.529 | 0.146
NCI-H1648 |  |  |  |  |  | 0.836 | 0.933 | 0.9 | 0.835 | 0.759 | 0.614 | 1.03 | 0.795 | 0.786 |  |  |  |  | 
NCI-H358 |  |  |  |  |  | 0.877 | 0.929 | 1.03 | 1.06 | 0.935 | 1.04 | 1.03 | 0.339 | 0.246 | 0.75 | 0.795 | 0.886 | 0.335 | 0.156
NCI-H522 |  |  |  |  |  | 1.04 | 0.931 | 1.06 | 0.738 | 0.889 | 1.1 | 1.13 | 0.78 | 0.617 |  |  |  |  | 
NCI-H650 |  |  |  |  |  | 0.899 | 0.953 | 1.05 | 1.01 | 0.895 | 1.12 | 1 | 0.791 | 0.653 | 0.968 | 1.17 | 1.03 | 0.914 | 0.864
NCI-H661 |  |  |  |  |  | 1.01 | 0.982 | 0.72 | 0.605 | 0.888 | 0.947 | 1.01 | 0.967 | 0.649 | 0.895 | 1.04 | 0.988 | 1 | 0.76
NCI-H1623 |  |  |  |  |  | 0.822 | 1.15 | 0.957 | 1.05 | 0.908 | 1.05 | 1.11 | 0.818 | 0.893 | 0.931 | 0.952 | 0.962 | 0.806 | 0.849
